Here are results for 40 molecules from patent US8802664B2 (Bioproject, priority 2010, dated 2014).

For one series, the target named is T1, human H4 receptor (Homo sapiens, UniProt Q9H3N8).
T1 construct: expressed in transfected cells
As to the kind of experiment: [3H]Histamine binding on membranes of CHO cells stably expressing human H4 receptor. A digest of the protocol: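 Nonspecific signal was taken as that remaining with 10 μM JNJ 7777120 present. Assays contained 20 μg CHO-derived hH4 membrane protein in Tris/HCl–EDTA buffer (pH 7.4) and were terminated on polyethyleneimine-soaked filters, with bound tritium quantified by scintillation.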

Where a name gives a salt, the structure may show the parent alone.

T1 sequence (Q9H3N8 whole entry): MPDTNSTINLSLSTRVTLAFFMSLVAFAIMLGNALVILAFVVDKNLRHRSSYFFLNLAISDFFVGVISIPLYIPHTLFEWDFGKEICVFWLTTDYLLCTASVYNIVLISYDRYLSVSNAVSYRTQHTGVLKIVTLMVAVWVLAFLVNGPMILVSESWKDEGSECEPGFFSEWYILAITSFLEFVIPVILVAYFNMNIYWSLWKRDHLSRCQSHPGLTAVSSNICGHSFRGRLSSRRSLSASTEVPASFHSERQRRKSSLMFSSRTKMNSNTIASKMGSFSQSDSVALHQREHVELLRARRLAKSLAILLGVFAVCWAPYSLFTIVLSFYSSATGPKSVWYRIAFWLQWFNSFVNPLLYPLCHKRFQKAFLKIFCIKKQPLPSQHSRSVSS

Turning to `CN1CCC(OC(c2cccc(OCC=CCO)c2)c2nc3ccccc3s2)CC1` (stereo not shown) (as salt: oxalate) [Example 422, 4-{3-[benzothiazol-2-yl(1-methylpiperidin-4-yloxy)methyl]phenoxy}but-2-en-1-ol], the melting point was found to be 73 °C.

`CN1CCC(NC(c2cccc(OCCF)c2)c2nc3ccccc3[nH]2)CC1` (stereo not shown) (as salt: oxalate) [Example 180, {(1H-benzimidazol-2-yl)[3-(2-fluoro-ethoxy)phenyl]methyl}(1-methylpiperidin-4-yl)amine] gave a melting point of 155 °C.

Consider `CN1CCC(OC(c2cccc(SCCNC(=N)N)c2)c2nc3ccccc3s2)CC1` (stereo not shown) (as salt: hydrochloride) [Example 302, N-(2-{3-[benzothiazol-2-yl(1-methylpiperidin-4-yloxy)methyl]phenylsulfanyl}ethyl)guanidine], for which the melting point is 125 °C.

For the molecule `COc1cccc(COc2cccc(C(OC3CCN(C)CC3)c3nc4ccccc4s3)c2)c1` (stereo not shown) (as salt: oxalate) [Example 185, 2-[[3-(3-methoxybenzyloxy)phenyl](1-methylpiperidin-4-yloxy)methyl]benzothiazole], the melting point worked out at 77 °C.

The molecule `CN1CCC(OC(c2nc3ccccc3[nH]2)c2cc(OCCF)ccc2F)CC1` (stereo not shown) (as salt: oxalate) [Example 489] came in with a melting point of 109 °C.

`CN1CCC(NC(c2cccc(Oc3ccccc3)c2)c2nc3ccccc3[nH]2)CC1` (stereo not shown) (as salt: oxalate) [Example 85, [(1H-benzimidazol-2-yl)(3-phenoxyphenyl)methyl](1-methylpiperidin-4-yl)amine] displayed a melting point of 144 °C.

On to `CCCCCOc1cccc(C(NC2CCN(C)CC2)c2nc3ccccc3[nH]2)c1` (stereo not shown) (as salt: oxalate) [Example 95, [(1H-benzimidazol-2-yl)(3-pentyloxyphenyl)methyl](1-methylpiperidin-4-yl)amine], for which the melting point is 128 °C.

In turn, `CN1CCC(OC(c2cccc(F)c2)c2nc3ccccc3s2)CC1` (stereo not shown) (as salt: oxalate) [Example 5] gave a melting point of 167 to 170 °C.

In the case of `CN1CCC(OC(c2cccc(OCCCCO)c2)c2nc3ccccc3s2)CC1` (stereo not shown) (as salt: oxalate) [Example 266, 4-{3-[benzothiazol-2-yl(1-methylpiperidin-4-yloxy)methyl]phenoxy}butan-1-ol], the melting point worked out at 63 °C.

`CC(C)Oc1cccc(C(OC2CCN(C)CC2)c2nc3ccccc3s2)c1` (stereo not shown) (as salt: oxalate) [Example 55, 2-[(3-isopropoxyphenyl)(1-methylpiperidin-4-yloxy)methyl]benzothiazole] registered a melting point of 68 °C.

For `CCCCOc1cccc(C(NC2CCN(C)CC2)c2nc3ccccc3s2)c1` (stereo not shown) (as salt: oxalate) [Example 91, [benzothiazol-2-yl(3-butoxyphenyl)methyl](1-methylpiperidin-4-yl)amine], the melting point came to 176 °C.

The molecule `Cc1ccc(C(NC2CCN(C)CC2)c2nc3ccccc3s2)cc1` (stereo not shown) (as salt: oxalate) [Example 36, (benzothiazol-2-yl-p-tolylmethyl)(1-methylpiperidin-4-yl)amine] had a melting point of 110 °C.

In turn, `CN1CCC(OC(c2cccc(OCc3cccnc3)c2)c2nc3ccccc3s2)CC1` (stereo not shown) (as salt: oxalate) [Example 284, 2-{(1-methylpiperidin-4-yloxy)[3-(pyridin-3-ylmethoxy)phenyl]methyl}benzothiazole] yielded a melting point of 102 °C.

In the case of `CN1CCC(OC(c2cccc(C=CCCCO)c2)c2nc3ccccc3[nH]2)CC1` (stereo not shown) (as salt: oxalate) [Example 389, 5-{3-[(1H-benzimidazol-2-yl)(1-methylpiperidin-4-yloxy)methyl]phenyl}pent-4-en-1-ol], the melting point stood at 125 °C.

With `CCOC(=O)n1c(C(OC2CCN(C)CC2)c2cc(OC(F)(F)F)ccc2F)nc2ccccc21` (stereo not shown) (as salt: oxalate) [Example 553], the melting point was determined as 118 °C.

As for `CN1CCC(OC(c2cc(C(F)(F)F)cc(C(F)(F)F)c2)c2nc3ccccc3[nH]2)CC1` (stereo not shown) (as salt: oxalate) [Example 547], the melting point was 130 °C.

In turn, `CN1CCC(OC(c2cccc(OCCF)c2)c2nc3ccccc3s2)CC1` (stereo not shown) (as salt: oxalate) [Example 163, 2-[[3-(2-fluoroethoxy)phenyl](1-methylpiperidin-4-yloxy)methyl]benzothiazole] showed a melting point of 147 °C.

In the case of `Cc1cccc(C(NC2CCN(C)CC2)c2nc3ccccc3[nH]2)c1` (stereo not shown) (as salt: oxalate) [Example 84, [(1H-benzimidazol-2-yl)(m-tolyl)methyl](1-methylpiperidin-4-yl)amine], the melting point was found to be 132 °C.

`CN1CCC(OC(c2cccc(OC3CCC(N)CC3)c2)c2nc3ccccc3s2)CC1` (stereo not shown) (as salt: oxalate) [Example 477] came in with a melting point of 95 °C.

As to `Cc1cc(F)cc(C(OC2CCN(C)CC2)c2nc3ccccc3s2)c1` (stereo not shown) (as salt: oxalate) [Example 38, 2-[(3-fluoro-5-methylphenyl)(1-methylpiperidin-4-yloxy)methyl]benzothiazole], the melting point came to 170 °C.

Take `CN1CCC(OC(c2cccc(OCC3CCCCC3)c2)c2nc3ccccc3s2)CC1` (stereo not shown) [Example 285, 2-[(3-Cyclohexylmethoxyphenyl)(1-methylpiperidin-4-yloxy)methyl]benzothiazole]: at human H4 receptor, the Ki or IC50 activity class was < 1000 nM.

On to `CN1CCC(OC(c2cccc(C#CCCCn3cccn3)c2)c2nc3ccccc3[nH]2)CC1` (stereo not shown) [Example 410, 2-{(1-methylpiperidin-4-yloxy)[3-(5-pyrazol-1-yl-pent-1-ynyl)phenyl]methyl}-1H-benzimidazole], for which, at human H4 receptor, the Ki or IC50 activity class was < 300 nM.

As for `CCN1CCC(OC(c2cccc(OCCN)c2)c2nc3ccccc3s2)CC1` (stereo not shown) [Example 290, 2-{3-[benzothiazol-2-yl(1-ethyl-piperidin-4-yloxy)methyl]phenoxy}ethylamine], the Ki or IC50 activity class at human H4 receptor was < 300 nM.

For the molecule `CN1CCC(OC(c2cccc(CCC(=O)OC(C)(C)C)c2)c2nc3ccccc3s2)CC1` (stereo not shown) [Example 208, 3-{3-[benzothiazol-2-yl(1-methylpiperidin-4-yloxy)methyl]phenyl}propionic acid tert-butyl ester], the Ki or IC50 activity class on human H4 receptor was < 300 nM.

Turning to `CN1CCC(NC(c2cccc(I)c2)c2nc3ccccc3s2)CC1` (stereo not shown) [Example 48, [benzothiazol-2-yl(3-iodophenyl)methyl](1-methylpiperidin-4-yl)amine], the Ki or IC50 activity class on human H4 receptor is < 300 nM.

As to `CN1CCC(OC(c2cccc(C=C3NC(=N)NC3=O)c2)c2nc3ccccc3[nH]2)CC1` (stereo not shown) [Example 505, 5-{3-[(1H-benzimidazol-2-yl)(1-methylpiperidin-4-yloxy)methyl]benzylidene}-2-iminoimidazolidin-4-one], the Ki or IC50 activity class on human H4 receptor was < 1000 nM.

As for `COCCn1c(C(OC2CCN(C)CC2)c2cccc(C#CCCCCN)c2)nc2ccccc21` (stereo not shown) [Example 501], the Ki or IC50 activity class at human H4 receptor is < 300 nM.

`CN1CCC(OC(c2cccc(OCCNCC(=O)OC(C)(C)C)c2)c2nc3ccccc3[nH]2)CC1` (stereo not shown) [Example 361, (2-{3-[(1H-benzimidazol-2-yl)(1-methylpiperidin-4-yloxy)methyl]phenoxy}ethylamino)acetic acid tert-butyl ester]: the Ki or IC50 activity class on human H4 receptor was < 1000 nM.

On to `CN1CCC(OC(c2cccc(SCC(=O)NCCN)c2)c2nc3cc(F)ccc3[nH]2)CC1` (stereo not shown) [Example 459], for which the Ki or IC50 activity class at human H4 receptor was < 30 nM.

As for `CN1CCC(OC(c2nc3ccccc3s2)c2ccccc2Cl)CC1` (stereo not shown) [Example 281, 2-[(2-Chlorophenyl)(1-methylpiperidin-4-yloxy)methyl]benzothiazole], the Ki or IC50 activity class on human H4 receptor is < 1000 nM.

Turning to `CN1CCC(OC(c2nc3ccccc3s2)c2c(F)cc(Cl)cc2F)CC1` (stereo not shown) [Example 532], the Ki or IC50 activity class at human H4 receptor was < 300 nM.

`CN1CCC(OC(c2cccc(OCCCF)c2)c2nc3ccccc3s2)CC1` (stereo not shown) [Example 176, 2-[[3-(3-fluoropropoxy)phenyl](1-methylpiperidin-4-yloxy)methyl]benzothiazole]: at human H4 receptor, the Ki or IC50 activity class is < 30 nM.

As to `CN1CCC(OC(c2cccc(-c3ccc(F)c(F)c3F)c2)c2nc3ccccc3s2)CC1` (stereo not shown) [Example 141, 2-[(1-methylpiperidin-4-yloxy)(2′,3′,4′-trifluorobiphenyl-3-yl)methyl]benzothiazole], on human H4 receptor, the Ki or IC50 activity class is < 300 nM.

For the molecule `CN1CCC(OC(c2cccc(SCCN)c2)c2nc3cc(F)ccc3[nH]2)CC1` (stereo not shown) [Example 428, 2-{3-[(5-fluoro-1H-benzimidazol-2-yl)(1-methylpiperidin-4-yloxy)methyl]phenylsulfanyl}ethylamine], the Ki or IC50 activity class at human H4 receptor was < 300 nM.

Take `CN1CCC(OC(c2cccc(OCCF)c2)c2nc3ccccc3[nH]2)CC1` (stereo not shown) [Example 476]: the Ki or IC50 activity class on human H4 receptor was < 30 nM.

`CN1CCC(OC(c2cccc(CCCCNC(=N)N)c2)c2nc3ccccc3[nH]2)CC1` (stereo not shown) [Example 308, N-(4-{3-[(1H-benzimidazol-2-yl)(1-methylpiperidin-4-yloxy)methyl]phenyl}butyl)guanidine]: the Ki or IC50 activity class at human H4 receptor is < 300 nM.

Consider `CCCCOc1cccc(C(NC2CCN(C)CC2)c2nc3ccccc3[nH]2)c1` (stereo not shown) [Example 69, [(1H-benzimidazol-2-yl)(3-butoxyphenyl)methyl](1-methylpiperidin-4-yl)amine], for which the Ki or IC50 activity class on human H4 receptor is < 30 nM.

In the case of `CN1CCC(OC(c2cccc(OC3CNC3)c2)c2nc3ccccc3s2)CC1` (stereo not shown) [Example 402, 2-[[3-(azetidin-3-yloxy)phenyl](1-methylpiperidin-4-yloxy)methyl]benzothiazole], the Ki or IC50 activity class on human H4 receptor was < 300 nM.

`CN1CCC(OC(c2cccc(CCC3CCNCC3)c2)c2nc3ccccc3[nH]2)CC1` (stereo not shown) [Example 396, 2-{(1-methylpiperidin-4-yloxy)[3-(2-piperidin-4-yl-ethyl)phenyl]methyl}-1H-benzimidazole]: the Ki or IC50 activity class on human H4 receptor is < 1000 nM.

As to `CN1CCC(OC(c2cccc(-n3cccn3)c2)c2nc3ccccc3s2)CC1` (stereo not shown) [Example 147, 2-[(1-methylpiperidin-4-yloxy)(3-pyrazol-1-ylphenyl)methyl]benzothiazole], the Ki or IC50 activity class at human H4 receptor was < 300 nM.
